From patent US20250163104A1, “MACROCYCLIC IMMUNOMODULATORS” (priority 2021, published 2025)
Where a SMILES comes first, the peptide text is derived from it. Bridges are numbered along the chain shown (N, C = ends). [ ]: non-standard residue; d: D form. Phe(4-NO2) = N[C@@H](Cc1ccc([N+](=O)[O-])cc1)C(=O)O; Phe(4-CF3) = N[C@@H](Cc1ccc(C(F)(F)F)cc1)C(=O)O; Phe(4-tBu) = CC(C)(C)c1ccc(C[C@H](N)C(=O)O)cc1; Bip = N[C@@H](Cc1ccc(-c2ccccc2)cc1)C(=O)O; Phe(3-Cl) = N[C@@H](Cc1cccc(Cl)c1)C(=O)O; Phe(4-Cl) = N[C@@H](Cc1ccc(Cl)cc1)C(=O)O; Phe(4-NH2) = Nc1ccc(C[C@H](N)C(=O)O)cc1; Phe(3-Me) = Cc1cccc(C[C@H](N)C(=O)O)c1; Phe(4-F) = N[C@@H](Cc1ccc(F)cc1)C(=O)O; Phe(4-Me) = Cc1ccc(C[C@H](N)C(=O)O)cc1; Cha = N[C@@H](CC1CCCCC1)C(=O)O; Cit = NC(=O)NCCC[C@H](N)C(=O)O; Orn = NCCC[C@H](N)C(=O)O; Dab = NCC[C@H](N)C(=O)O; Dap = NC[C@H](N)C(=O)O

What follows are compounds tested against T1, human PD-1 / PD-L1-Ig binding on Jurkat cell line over-expressing human PD-1 (Jurkat-PD-1) (Homo sapiens, UniProt Q15116) (assay: Jurkat-PD-1 Cell Binding High-Content Screening Assay (CBA)). Conditions: Jurkat-PD-1 cells, PE-labeled PD-L1-Ig 20 nM final; read-out: Jurkat HPD1_PDL1 IC50.
T1 construct: expressed in transfected cells; host or cells: Jurkat
T1 sequence (Q15116 25-288): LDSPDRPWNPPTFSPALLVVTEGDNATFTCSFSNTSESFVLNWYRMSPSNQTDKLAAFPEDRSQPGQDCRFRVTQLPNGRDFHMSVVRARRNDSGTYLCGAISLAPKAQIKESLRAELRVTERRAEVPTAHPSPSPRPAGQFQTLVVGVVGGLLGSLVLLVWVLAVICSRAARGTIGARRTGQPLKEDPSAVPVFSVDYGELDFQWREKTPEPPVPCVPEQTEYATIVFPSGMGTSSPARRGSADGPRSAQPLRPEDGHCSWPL
Type: cell-based
Outline: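 Read-out: high-content imaging of PE-tagged PD-L1-Ig bound to Jurkat cells overexpressing human PD-1, after fixation with 4% paraformaldehyde and Hoechst 33342 nuclear staining. Ligand was used at 20 nM final for 1 hour, after a 2 h compound exposure at 37° C in serum-containing DMEM.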
CC(C)C[C@H]1NC(=O)[C@H](CCCN)NC(=O)[C@H](CCCNC(N)=O)NC(=O)[C@H](Cc2ccc(-c3ccccc3)cc2)NC(=O)[C@H](C(C)C)NC(=O)[C@H](Cc2c[nH]c3ccccc23)NC(=O)[C@H](CC(=O)O)NC(=O)[C@H](Cc2ccc(Cl)cc2)NC(=O)[C@H](CN)NC(=O)CSC[C@@H](C(=O)N[C@@H](C)C(N)=O)NC(=O)[C@H]([C@@H](C)O)NC(=O)[C@H](C(C)C)NC(=O)[C@H](CC2CCCCC2)NC(=O)[C@H](CCN)NC1=O [Compound 2102] ({CH2CO}-[Dap][Phe(4-Cl)]DWV[Bip][Cit][Orn][dL][Dab][Cha]VTCA-NH2; thioether N-14) was tested, and the IC50 was 45.6 nM. CC(C)C[C@H]1NC(=O)[C@H](CCCN)NC(=O)[C@H](CCCNC(N)=O)NC(=O)[C@H](Cc2ccc(-c3ccccc3)cc2)NC(=O)[C@H](C(C)C)NC(=O)[C@H](Cc2c[nH]c3ccccc23)NC(=O)[C@H](CC(=O)O)NC(=O)[C@H](Cc2ccc(F)cc2)NC(=O)[C@H](CN)NC(=O)CSC[C@@H](C(=O)N[C@@H](C)C(N)=O)NC(=O)[C@H]([C@@H](C)O)NC(=O)[C@H](C(C)C)NC(=O)[C@H](CC2CCCCC2)NC(=O)[C@H](CCN)NC1=O [Compound 2103] ({CH2CO}-[Dap][Phe(4-F)]DWV[Bip][Cit][Orn][dL][Dab][Cha]VTCA-NH2; thioether N-14) was tested, and the IC50 was 15.9 nM. CC(C)C[C@H]1NC(=O)[C@H](CCCN)NC(=O)[C@H](CCCNC(N)=O)NC(=O)[C@H](Cc2ccc(-c3ccccc3)cc2)NC(=O)[C@H](C(C)C)NC(=O)[C@H](Cc2c[nH]c3ccccc23)NC(=O)[C@H](CC(=O)O)NC(=O)[C@H](CCc2ccncc2)NC(=O)[C@H](CN)NC(=O)CSC[C@@H](C(=O)N[C@@H](C)C(N)=O)NC(=O)[C@H]([C@@H](C)O)NC(=O)[C@H](C(C)C)NC(=O)[C@H](CC2CCCCC2)NC(=O)[C@H](CCN)NC1=O [Compound 2104] showed an IC50 of 18.2 nM. CC(C)C[C@H]1NC(=O)[C@H](CCCN)NC(=O)[C@H](CCCNC(N)=O)NC(=O)[C@H](Cc2ccc(-c3ccccc3)cc2)NC(=O)[C@H](C(C)C)NC(=O)[C@H](Cc2c[nH]c3ccccc23)NC(=O)[C@H](CC(=O)O)NC(=O)[C@H](Cc2ccc(N)cc2)NC(=O)[C@H](CN)NC(=O)CSC[C@@H](C(=O)N[C@@H](C)C(N)=O)NC(=O)[C@H]([C@@H](C)O)NC(=O)[C@H](C(C)C)NC(=O)[C@H](CC2CCCCC2)NC(=O)[C@H](CCN)NC1=O [Compound 2105] ({CH2CO}-[Dap][Phe(4-NH2)]DWV[Bip][Cit][Orn][dL][Dab][Cha]VTCA-NH2; thioether N-14) was tested, and the IC50 was 6.8 nM. Compound CC(C)C[C@H]1NC(=O)[C@H](CCCN)NC(=O)[C@H](CCCNC(N)=O)NC(=O)[C@H](Cc2ccc(-c3ccccc3)cc2)NC(=O)[C@H](C(C)C)NC(=O)[C@H](Cc2c[nH]c3ccccc23)NC(=O)[C@H](CC(=O)O)NC(=O)[C@H](Cc2ccc(C(C)(C)C)cc2)NC(=O)[C@H](CN)NC(=O)CSC[C@@H](C(=O)N[C@@H](C)C(N)=O)NC(=O)[C@H]([C@@H](C)O)NC(=O)[C@H](C(C)C)NC(=O)[C@H](CC2CCCCC2)NC(=O)[C@H](CCN)NC1=O [Compound 2106] ({CH2CO}-[Dap][Phe(4-tBu)]DWV[Bip][Cit][Orn][dL][Dab][Cha]VTCA-NH2; thioether N-14) has an IC50 of 93.4 nM. CC(C)C[C@H]1NC(=O)[C@H](CCCN)NC(=O)[C@H](CCCNC(N)=O)NC(=O)[C@H](Cc2ccc(-c3ccccc3)cc2)NC(=O)[C@H](C(C)C)NC(=O)[C@H](Cc2c[nH]c3ccccc23)NC(=O)[C@H](CC(=O)O)NC(=O)[C@H](Cc2ccc(C(F)(F)F)cc2)NC(=O)[C@H](CN)NC(=O)CSC[C@@H](C(=O)N[C@@H](C)C(N)=O)NC(=O)[C@H]([C@@H](C)O)NC(=O)[C@H](C(C)C)NC(=O)[C@H](CC2CCCCC2)NC(=O)[C@H](CCN)NC1=O [Compound 2107] ({CH2CO}-[Dap][Phe(4-CF3)]DWV[Bip][Cit][Orn][dL][Dab][Cha]VTCA-NH2; thioether N-14) was tested, and the IC50 was 44.7 nM. With Cc1ccc(C[C@@H]2NC(=O)[C@H](CN)NC(=O)CSC[C@@H](C(=O)N[C@@H](C)C(N)=O)NC(=O)[C@H]([C@@H](C)O)NC(=O)[C@H](C(C)C)NC(=O)[C@H](CC3CCCCC3)NC(=O)[C@H](CCN)NC(=O)[C@@H](CC(C)C)NC(=O)[C@H](CCCN)NC(=O)[C@H](CCCNC(N)=O)NC(=O)[C@H](Cc3ccc(-c4ccccc4)cc3)NC(=O)[C@H](C(C)C)NC(=O)[C@H](Cc3c[nH]c4ccccc34)NC(=O)[C@H](CC(=O)O)NC2=O)cc1 [Compound 2108] ({CH2CO}-[Dap][Phe(4-Me)]DWV[Bip][Cit][Orn][dL][Dab][Cha]VTCA-NH2; thioether N-14) the IC50 was 19.9 nM. Compound Cc1cccc(C[C@@H]2NC(=O)[C@H](CN)NC(=O)CSC[C@@H](C(=O)N[C@@H](C)C(N)=O)NC(=O)[C@H]([C@@H](C)O)NC(=O)[C@H](C(C)C)NC(=O)[C@H](CC3CCCCC3)NC(=O)[C@H](CCN)NC(=O)[C@@H](CC(C)C)NC(=O)[C@H](CCCN)NC(=O)[C@H](CCCNC(N)=O)NC(=O)[C@H](Cc3ccc(-c4ccccc4)cc3)NC(=O)[C@H](C(C)C)NC(=O)[C@H](Cc3c[nH]c4ccccc34)NC(=O)[C@H](CC(=O)O)NC2=O)c1 [Compound 2109] ({CH2CO}-[Dap][Phe(3-Me)]DWV[Bip][Cit][Orn][dL][Dab][Cha]VTCA-NH2; thioether N-14) has an IC50 of 38.5 nM. For CC(C)C[C@H]1NC(=O)[C@H](CCCN)NC(=O)[C@H](CCCNC(N)=O)NC(=O)[C@H](Cc2ccc(-c3ccccc3)cc2)NC(=O)[C@H](C(C)C)NC(=O)[C@H](Cc2c[nH]c3ccccc23)NC(=O)[C@H](CC(=O)O)NC(=O)[C@H](Cc2ccc([N+](=O)[O-])cc2)NC(=O)[C@H](CN)NC(=O)CSC[C@@H](C(=O)N[C@@H](C)C(N)=O)NC(=O)[C@H]([C@@H](C)O)NC(=O)[C@H](C(C)C)NC(=O)[C@H](CC2CCCCC2)NC(=O)[C@H](CCN)NC1=O [Compound 2110] ({CH2CO}-[Dap][Phe(4-NO2)]DWV[Bip][Cit][Orn][dL][Dab][Cha]VTCA-NH2; thioether N-14), the IC50 was 18.2 nM. CC(C)C[C@H]1NC(=O)[C@H](CCCN)NC(=O)[C@H](CCCNC(N)=O)NC(=O)[C@H](Cc2ccc(-c3ccccc3)cc2)NC(=O)[C@H](C(C)C)NC(=O)[C@H](Cc2c[nH]c3ccccc23)NC(=O)[C@H](CC(=O)O)NC(=O)[C@H](Cc2cccc(Cl)c2)NC(=O)[C@H](CN)NC(=O)CSC[C@@H](C(=O)N[C@@H](C)C(N)=O)NC(=O)[C@H]([C@@H](C)O)NC(=O)[C@H](C(C)C)NC(=O)[C@H](CC2CCCCC2)NC(=O)[C@H](CCN)NC1=O [Compound 2111] ({CH2CO}-[Dap][Phe(3-Cl)]DWV[Bip][Cit][Orn][dL][Dab][Cha]VTCA-NH2; thioether N-14) showed an IC50 of 33 nM. COc1ccc(C[C@@H]2NC(=O)[C@H](CN)NC(=O)CSC[C@@H](C(=O)N[C@@H](C)C(N)=O)NC(=O)[C@H]([C@@H](C)O)NC(=O)[C@H](C(C)C)NC(=O)[C@H](CC3CCCCC3)NC(=O)[C@H](CCN)NC(=O)[C@@H](CC(C)C)NC(=O)[C@H](CCCN)NC(=O)[C@H](CCCNC(N)=O)NC(=O)[C@H](Cc3ccc(-c4ccccc4)cc3)NC(=O)[C@H](C(C)C)NC(=O)[C@H](Cc3c[nH]c4ccccc34)NC(=O)[C@H](CC(=O)O)NC2=O)cc1 [Compound 2112] was tested, and the IC50 was 18 nM. CC(C)C[C@H]1NC(=O)[C@H](CCCN)NC(=O)[C@H](CCCNC(N)=O)NC(=O)[C@H](Cc2ccc(-c3ccccc3)cc2)NC(=O)[C@H](C(C)C)NC(=O)[C@H](Cc2c[nH]c3ccccc23)NC(=O)[C@H](CC(=O)O)NC(=O)[C@H](Cc2ccc(O)c([N+](=O)[O-])c2)NC(=O)[C@H](CN)NC(=O)CSC[C@@H](C(=O)N[C@@H](C)C(N)=O)NC(=O)[C@H]([C@@H](C)O)NC(=O)[C@H](C(C)C)NC(=O)[C@H](CC2CCCCC2)NC(=O)[C@H](CCN)NC1=O [Compound 2113] was tested, and the IC50 was 14.9 nM. CC(C)C[C@H]1NC(=O)[C@H](CCCN)NC(=O)[C@H](CCCNC(N)=O)NC(=O)[C@H](Cc2ccc(-c3ccccc3)cc2)NC(=O)[C@H](C(C)C)NC(=O)[C@H](Cc2c[nH]c3ccccc23)NC(=O)[C@H](CC(=O)O)NC(=O)[C@H](Cc2csc3ccccc23)NC(=O)[C@H](CN)NC(=O)CSC[C@@H](C(=O)N[C@@H](C)C(N)=O)NC(=O)[C@H]([C@@H](C)O)NC(=O)[C@H](C(C)C)NC(=O)[C@H](CC2CCCCC2)NC(=O)[C@H](CCN)NC1=O [Compound 2114] was tested, and the IC50 was 68.9 nM. CC(C)C[C@H]1NC(=O)[C@H](CCCN)NC(=O)[C@H](CCCNC(N)=O)NC(=O)[C@H](Cc2ccc(-c3ccccc3)cc2)NC(=O)[C@H](C(C)C)NC(=O)[C@H](Cc2c[nH]c3ccccc23)NC(=O)[C@H](CC(=O)O)NC(=O)[C@H](Cc2cccc3ccccc23)NC(=O)[C@H](CN)NC(=O)CSC[C@@H](C(=O)N[C@@H](C)C(N)=O)NC(=O)[C@H]([C@@H](C)O)NC(=O)[C@H](C(C)C)NC(=O)[C@H](CC2CCCCC2)NC(=O)[C@H](CCN)NC1=O [Compound 2115] showed an IC50 of 53.4 nM. In the case of CC(C)C[C@H]1NC(=O)[C@H](CCCN)NC(=O)[C@H](CCCNC(N)=O)NC(=O)[C@H](Cc2ccc(-c3ccccc3)cc2)NC(=O)[C@H](C(C)C)NC(=O)[C@H](Cc2c[nH]c3ccccc23)NC(=O)[C@H](CC(=O)O)NC(=O)[C@H](Cc2ccc3ncccc3c2)NC(=O)[C@H](CN)NC(=O)CSC[C@@H](C(=O)N[C@@H](C)C(N)=O)NC(=O)[C@H]([C@@H](C)O)NC(=O)[C@H](C(C)C)NC(=O)[C@H](CC2CCCCC2)NC(=O)[C@H](CCN)NC1=O [Compound 2116], the IC50 is reported as 8.9 nM. Work on CC(C)C[C@H]1NC(=O)[C@H](CCCN)NC(=O)[C@H](CCCNC(N)=O)NC(=O)[C@H](Cc2ccc(-c3ccccc3)cc2)NC(=O)[C@H](C(C)C)NC(=O)[C@H](Cc2c[nH]c3ccccc23)NC(=O)[C@H](CC(=O)O)NC(=O)[C@H](Cc2ccc3ccncc3c2)NC(=O)[C@H](CN)NC(=O)CSC[C@@H](C(=O)N[C@@H](C)C(N)=O)NC(=O)[C@H]([C@@H](C)O)NC(=O)[C@H](C(C)C)NC(=O)[C@H](CC2CCCCC2)NC(=O)[C@H](CCN)NC1=O [Compound 2117] yielded an IC50 of 18.7 nM.
